Assay results: PubChem BioAssay AID1195 (EPA DSSTox, 2008)

System: human maximum recommended daily dose, FDA database
Assay: DSSTox (FDAMDD) FDA Maximum (Recommended) Daily Dose Database
Conditions: hits give low values
In short: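 MRDD values come from clinical trials with daily oral dosing, usually for 3–12 months, for the average adult, in mg/day converted to mg/kg-bw/day assuming 60 kg. Antineoplastic mg/m2 doses are divided by 37. Activity score maps log10(1/MRDD mmol) onto 1–100.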

[1] = TherapeuticCategory: antibacterial
[2] = TherapeuticCategory: antihypertensive

**Q.** How did the maximum recommended daily dose (mmol/kg-bw/day) (TherapeuticCategory: anxiolytic, skeletal muscle relaxant) turn out when `CNCC12CCC(c3ccccc31)c1ccccc12` was run?
**A.** The maximum recommended daily dose (mmol/kg-bw/day) was 0.00401.

**Q.** `O=C(OC1C(OC(=O)c2cccnc2)C(OC(=O)c2cccnc2)C(OC(=O)c2cccnc2)C(OC(=O)c2cccnc2)C1OC(=O)c1cccnc1)c1cccnc1` (configuration not stated) was tested. Which maximum recommended daily dose (mmol/kg-bw/day) (TherapeuticCategory: vasodilator) did it give?
**A.** Its maximum recommended daily dose (mmol/kg-bw/day) is 0.0823.

**Q.** With `CCC(Br)(CC)C(=O)NC(N)=O` as the compound, how does the maximum recommended daily dose (mmol/kg-bw/day) (TherapeuticCategory: sedative, hypnotic) read?
**A.** The maximum recommended daily dose (mmol/kg-bw/day) was 0.0704.

**Q.** How did the maximum recommended daily dose (mmol/kg-bw/day) [1] turn out when `CC(=O)NS(=O)(=O)c1cc(N)ccc1S(=O)(=O)c1ccc(N)cc1` was run?
**A.** The maximum recommended daily dose (mmol/kg-bw/day) was 0.17.

**Q.** Which maximum recommended daily dose (mmol/kg-bw/day) (TherapeuticCategory: antipsoriatic) does the source give for `COc1cc(C)c(/C=C/C(C)=C/C=C/C(C)=C/C(=O)O)c(C)c1C` here?
**A.** The maximum recommended daily dose (mmol/kg-bw/day) was 0.00383.

**Q.** `COC1CC(=C(c2cccs2)c2cccs2)C[N+](C)(C)C1` (configuration not stated) was tested. Which maximum recommended daily dose (mmol/kg-bw/day) (TherapeuticCategory: anticholinergic) did it give?
**A.** The maximum recommended daily dose (mmol/kg-bw/day) was 0.00375.

**Q.** How did the maximum recommended daily dose (mmol/kg-bw/day) (TherapeuticCategory: bronchodilator, tocolytic) turn out when `CC(Cc1ccc(O)cc1)NCC(O)c1cc(O)cc(O)c1` (configuration not stated) was run?
**A.** Its maximum recommended daily dose (mmol/kg-bw/day) is 8.8e-05.

**Q.** Which maximum recommended daily dose (mmol/kg-bw/day) (TherapeuticCategory: antihistaminic) does the source give for `CN(C)CCN(Cc1cccs1)c1ccccn1` here?
**A.** Its maximum recommended daily dose (mmol/kg-bw/day) is 0.0255.

**Q.** With `CCCCCCCCCCC[C@@H](C[C@@H]1OC(=O)[C@H]1CCCCCC)OC(=O)C(CC(C)C)NC=O` (some centres not stated) as the compound, how does the maximum recommended daily dose (mmol/kg-bw/day) (TherapeuticCategory: antiobesity) read?
**A.** Its maximum recommended daily dose (mmol/kg-bw/day) is 0.0121.

**Q.** For `CCO`, which maximum recommended daily dose (mmol/kg-bw/day) (TherapeuticCategory: topical antiseptic) is on record?
**A.** The maximum recommended daily dose (mmol/kg-bw/day) was 2.17.

**Q.** How did the maximum recommended daily dose (mmol/kg-bw/day) [2] turn out when `COc1cc2nc(N3CCN(C(=O)C4COc5ccccc5O4)CC3)nc(N)c2cc1OC` (configuration not stated) was run?
**A.** Its maximum recommended daily dose (mmol/kg-bw/day) is 0.000591.

**Q.** `OCCN1CCN(CCCN2c3ccccc3Sc3ccc(Cl)cc32)CC1` was tested. Which maximum recommended daily dose (mmol/kg-bw/day) (TherapeuticCategory: antipsychotic, dopamine receptor antagonist) did it give?
**A.** Its maximum recommended daily dose (mmol/kg-bw/day) is 0.00099.

**Q.** For `NCC[C@H](O)C(=O)N[C@@H]1C[C@H](N)[C@@H](O[C@H]2O[C@H](CN)[C@@H](O)[C@H](O)[C@H]2O)[C@H](O)[C@H]1O[C@H]1O[C@H](CO)[C@@H](O)[C@H](N)[C@H]1O`, which maximum recommended daily dose (mmol/kg-bw/day) [1] is on record?
**A.** Its maximum recommended daily dose (mmol/kg-bw/day) is 0.0256.

**Q.** For `CC(=O)OC[C@H]1O[C@@H](n2ncc(=O)[nH]c2=O)[C@H](OC(C)=O)[C@@H]1OC(C)=O`, which maximum recommended daily dose (mmol/kg-bw/day) (TherapeuticCategory: antineoplastic, antipsoriatic) is on record?
**A.** The maximum recommended daily dose (mmol/kg-bw/day) was 0.458.

**Q.** Which maximum recommended daily dose (mmol/kg-bw/day) [1] does the source give for `CN[C@@H]1[C@H](O[C@H]2[C@H](O[C@H]3[C@H](O)[C@@H](O)[C@H](N=C(N)N)[C@@H](O)[C@@H]3N=C(N)N)O[C@@H](C)[C@]2(O)CO)O[C@@H](CO)[C@H](O)[C@H]1O` here?
**A.** Its maximum recommended daily dose (mmol/kg-bw/day) is 0.0286.

**Q.** For `CC(=O)CC(c1ccccc1)c1c(O)c2ccccc2oc1=O` (configuration not stated), which maximum recommended daily dose (mmol/kg-bw/day) (TherapeuticCategory: anticoagulant) is on record?
**A.** Its maximum recommended daily dose (mmol/kg-bw/day) is 0.000542.

**Q.** `COc1ccc(NS(=O)(=O)c2ccc(N)cc2)nn1` was tested. Which maximum recommended daily dose (mmol/kg-bw/day) [1] did it give?
**A.** The maximum recommended daily dose (mmol/kg-bw/day) was 0.0892.

**Q.** With `CCCCC[C@H](O)/C=C/[C@@H]1[C@@H](C/C=C\CCCC(=O)O)[C@@H](O)C[C@H]1O` as the compound, how does the maximum recommended daily dose (mmol/kg-bw/day) (TherapeuticCategory: oxytocic, abortifacient) read?
**A.** Its maximum recommended daily dose (mmol/kg-bw/day) is 3.53e-05.

**Q.** How did the maximum recommended daily dose (mmol/kg-bw/day) (TherapeuticCategory: anxiolytic) turn out when `O=C1CN2CCOC2(c2ccccc2Cl)c2cc(Cl)ccc2N1` (configuration not stated) was run?
**A.** The maximum recommended daily dose (mmol/kg-bw/day) was 0.000573.

**Q.** With `C[C@](N)(Cc1ccc(O)c(O)c1)C(=O)O` as the compound, how does the maximum recommended daily dose (mmol/kg-bw/day) [2] read?
**A.** Its maximum recommended daily dose (mmol/kg-bw/day) is 0.158.

**Q.** `C[C@]12C=CC(=O)C=C1CC[C@@H]1[C@@H]2[C@@H](O)C[C@@]2(C)[C@H]1CC[C@]2(O)C(=O)COC(=O)CCCc1ccc(N(CCCl)CCCl)cc1` was tested. Which maximum recommended daily dose (mmol/kg-bw/day) (TherapeuticCategory: antineoplastic) did it give?
**A.** Its maximum recommended daily dose (mmol/kg-bw/day) is 0.00515.

**Q.** How did the maximum recommended daily dose (mmol/kg-bw/day) [1] turn out when `CO[C@H]1C[C@H](O[C@H]2[C@H](C)[C@@H](O[C@@H]3O[C@H](C)C[C@H](N(C)C)[C@H]3OC(C)=O)[C@@H](C)C[C@]3(CO3)C(=O)[C@H](C)[C@@H](OC(C)=O)[C@@H](C)[C@@H](C)OC(=O)[C@@H]2C)O[C@@H](C)[C@@H]1OC(C)=O` was run?
**A.** The maximum recommended daily dose (mmol/kg-bw/day) was 0.0409.

**Q.** Which maximum recommended daily dose (mmol/kg-bw/day) (TherapeuticCategory: alkalizer) does the source give for `NC(CO)(CO)CO` here?
**A.** The maximum recommended daily dose (mmol/kg-bw/day) was 2.48.

**Q.** With `CC[C@H]1CN2CCc3cc(OC)c(OC)cc3[C@@H]2C[C@@H]1C[C@H]1NCCc2cc(OC)c(OC)cc21` as the compound, how does the maximum recommended daily dose (mmol/kg-bw/day) (TherapeuticCategory: antiamebic) read?
**A.** Its maximum recommended daily dose (mmol/kg-bw/day) is 0.00208.

**Q.** Which maximum recommended daily dose (mmol/kg-bw/day) (TherapeuticCategory: anorexic) does the source give for `CCN(CC)C(C)C(=O)c1ccccc1` (configuration not stated) here?
**A.** The maximum recommended daily dose (mmol/kg-bw/day) was 0.00609.

**Q.** Which maximum recommended daily dose (mmol/kg-bw/day) (TherapeuticCategory: chelating agent, treatmemt of Wilson's disease) does the source give for `NCCNCCNCCN` here?
**A.** The maximum recommended daily dose (mmol/kg-bw/day) was 0.228.

**Q.** Which maximum recommended daily dose (mmol/kg-bw/day) (TherapeuticCategory: antitussive) does the source give for `CCC(=O)O[C@@](Cc1ccccc1)(c1ccccc1)[C@@H](C)CN(C)C` here?
**A.** Its maximum recommended daily dose (mmol/kg-bw/day) is 0.00492.

**Q.** How did the maximum recommended daily dose (mmol/kg-bw/day) (TherapeuticCategory: ammonia detoxicant, diagnostic aid) turn out when `NC(N)=NCCCC(N)C(=O)O` (configuration not stated) was run?
**A.** The maximum recommended daily dose (mmol/kg-bw/day) was 2.87.

**Q.** `COC(=O)[C@H]1[C@H]2C[C@@H]3c4[nH]c5ccccc5c4CCN3C[C@H]2C[C@@H](OC(=O)c2cc(OC)c(OC)c(OC)c2)[C@@H]1OC` was tested. Which maximum recommended daily dose (mmol/kg-bw/day) [2] did it give?
**A.** Its maximum recommended daily dose (mmol/kg-bw/day) is 2.89e-05.

**Q.** For `COc1cc2nc(N3CCN(C(=O)C4CCCO4)CC3)nc(N)c2cc1OC` (configuration not stated), which maximum recommended daily dose (mmol/kg-bw/day) [2] is on record?
**A.** Its maximum recommended daily dose (mmol/kg-bw/day) is 0.00086.

**Q.** How did the maximum recommended daily dose (mmol/kg-bw/day) (TherapeuticCategory: antiviral) turn out when `CC(C)[C@H](N)C(=O)OCCOCn1cnc2c(=O)[nH]c(N)nc21` was run?
**A.** Its maximum recommended daily dose (mmol/kg-bw/day) is 0.154.

**Q.** Which maximum recommended daily dose (mmol/kg-bw/day) (TherapeuticCategory: progestogen) does the source give for `C#C[C@]1(O)CC[C@H]2[C@@H]3CCC4=CCCC[C@@H]4[C@H]3C(=C)C[C@@]21CC` here?
**A.** Its maximum recommended daily dose (mmol/kg-bw/day) is 8.05e-06.
